According to patent publication US20170312221A1, “PHARMACEUTICAL PREPARATION AND METHOD OF ITS PRODUCTION AND USE” (priority 2014, published 2017):

Tests used:
Assay in all cases: minimum inhibitory concentration
Format in all cases: cell-based
[1] = tested on: Staphylococcus aureus ATCC 25923
[2] = tested on: Escherichia coli NTCT 10418
[3] = tested on: Streptococcus pyogenes 421
[4] = tested on: Proteus vulgaris X

- Minimum inhibitory concentration (MIC) Staphylococcus aureus ATCC 25923 [1]: 0.25
- Minimum inhibitory concentration (MIC) Escherichia coli NTCT 10418 [2]: 128
- Minimum inhibitory concentration (MIC) Streptococcus pyogenes 421 [3]: 0.12
- Minimum inhibitory concentration (MIC) Proteus vulgaris X [4]: 64
Structure (SMILES): C/C(=C\C(=O)OCCCCCCCCC(=O)O)C[C@@H]1OC[C@H](C[C@@H]2O[C@H]2[C@@H](C)[C@H](C)O)[C@@H](O)[C@H]1O [Mupirocin]
